The record followed here is ChEMBL document CHEMBL1909046, “DrugMatrix in vitro pharmacology data”.

Broadly, the IC50 is the concentration that inhibits the measured activity by half. Usually Ki stands for the dissociation constant of the complex between target and ligand, obtained from inhibition or displacement.

Voltage-gated inwardly rectifying potassium channel KCNH2, sequence (Q12809 whole entry): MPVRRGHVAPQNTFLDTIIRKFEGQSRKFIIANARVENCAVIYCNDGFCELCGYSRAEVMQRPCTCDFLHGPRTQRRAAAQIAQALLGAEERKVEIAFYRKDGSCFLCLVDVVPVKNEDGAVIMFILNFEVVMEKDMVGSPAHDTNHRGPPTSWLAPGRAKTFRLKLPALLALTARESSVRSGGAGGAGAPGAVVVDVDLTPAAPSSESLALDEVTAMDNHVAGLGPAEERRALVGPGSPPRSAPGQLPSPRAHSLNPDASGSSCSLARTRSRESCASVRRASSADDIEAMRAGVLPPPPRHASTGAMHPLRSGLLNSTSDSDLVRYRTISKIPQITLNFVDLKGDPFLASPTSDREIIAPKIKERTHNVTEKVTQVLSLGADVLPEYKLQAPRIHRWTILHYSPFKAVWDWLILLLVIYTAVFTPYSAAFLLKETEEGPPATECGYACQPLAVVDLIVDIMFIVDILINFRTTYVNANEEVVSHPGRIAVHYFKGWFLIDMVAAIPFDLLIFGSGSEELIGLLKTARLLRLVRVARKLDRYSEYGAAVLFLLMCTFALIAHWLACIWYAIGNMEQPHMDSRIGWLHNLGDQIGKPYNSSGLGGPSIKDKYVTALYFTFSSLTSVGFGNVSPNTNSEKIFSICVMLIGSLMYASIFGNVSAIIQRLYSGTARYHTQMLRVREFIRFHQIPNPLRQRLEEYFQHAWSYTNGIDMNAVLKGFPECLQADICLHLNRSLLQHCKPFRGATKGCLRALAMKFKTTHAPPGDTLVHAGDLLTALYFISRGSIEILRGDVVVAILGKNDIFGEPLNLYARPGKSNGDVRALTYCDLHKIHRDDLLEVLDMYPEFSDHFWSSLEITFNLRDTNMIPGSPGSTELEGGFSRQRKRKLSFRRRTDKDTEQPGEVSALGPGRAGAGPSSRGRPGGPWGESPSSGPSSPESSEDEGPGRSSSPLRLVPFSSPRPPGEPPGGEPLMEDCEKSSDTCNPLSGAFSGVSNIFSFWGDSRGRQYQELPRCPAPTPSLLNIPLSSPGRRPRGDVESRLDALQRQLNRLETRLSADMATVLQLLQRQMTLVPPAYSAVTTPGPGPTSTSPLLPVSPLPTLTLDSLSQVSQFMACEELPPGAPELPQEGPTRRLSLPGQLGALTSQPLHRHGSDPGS

For the first data set, the target named is Kappa-type opioid receptor (Homo sapiens, UniProt P41145). Nature of the data set: DRUGMATRIX: Opiate kappa (OP2, KOP) radioligand binding (ligand: [3H] Diprenorphine). The format is cell membranes, HEK293, Membrane. As to conditions: hek293; Not Active = under 50% inhibition at 10 µM.
Kappa-type opioid receptor, sequence (P41145 whole entry): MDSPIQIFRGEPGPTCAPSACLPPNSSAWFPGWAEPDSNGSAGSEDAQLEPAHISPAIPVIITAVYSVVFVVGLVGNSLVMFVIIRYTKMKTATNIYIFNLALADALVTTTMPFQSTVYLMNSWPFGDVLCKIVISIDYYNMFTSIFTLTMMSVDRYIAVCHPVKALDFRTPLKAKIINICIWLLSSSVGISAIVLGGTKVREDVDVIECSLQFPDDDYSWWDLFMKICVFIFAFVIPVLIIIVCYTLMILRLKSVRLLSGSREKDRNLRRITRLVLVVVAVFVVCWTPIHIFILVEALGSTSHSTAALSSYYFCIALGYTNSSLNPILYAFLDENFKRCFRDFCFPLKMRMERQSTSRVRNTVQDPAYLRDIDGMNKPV
Regarding `CC[C@@H](CO)NC(=O)[C@@H]1C=C2c3cccc4c3c(cn4C)C[C@H]2N(C)C1` [METHYSERGIDE], the IC50 result is recorded as “Not Active”.
`CCN(CC)CC#CCOC(=O)C(O)(c1ccccc1)C1CCCCC1` (stereo not drawn) [OXYBUTYNIN]: the IC50 result is on record as “Not Active”.
Same read-out and setting: to `C[C@]12CC[C@H]3[C@@H](CCC4=CC(=O)CC[C@@]43C)[C@@H]1CC[C@@H]2O` [TESTOSTERONE] belongs “Not Active”; to `O=c1n(CCCN2CCN(c3cccc(Cl)c3)CC2)nc2ccccn12` [TRAZODONE], “Not Active”.

A further data set deals with Protein kinase C alpha type (Homo sapiens, UniProt P17252). The class given is cell-based. The following applies: sf9.
On to `O=c1[nH]c2ccccc2n1CCCN1CCC(n2c(=O)[nH]c3cc(Cl)ccc32)CC1` [DOMPERIDONE], for which the IC50 entry is on record as “Not Active”.
Regarding `CC[C@@H](CO)NC(=O)[C@@H]1C=C2c3cccc4c3c(cn4C)C[C@H]2N(C)C1` [METHYSERGIDE], the IC50 result is “Not Active”.
Regarding `CCN(CC)CC#CCOC(=O)C(O)(c1ccccc1)C1CCCCC1` (stereo not drawn) [OXYBUTYNIN], the 50% inhibitory concentration (IC50) result was “Not Active”.
Same read-out and setting: to `C=C(C)[C@H]1Cc2c(ccc3c2O[C@@H]2COc4cc(OC)c(OC)cc4[C@@H]2C3=O)O1` [ROTENONE] belongs “Not Active”; to `C[C@]12CC[C@H]3[C@@H](CCC4=CC(=O)CC[C@@]43C)[C@@H]1CC[C@@H]2O` [TESTOSTERONE], “Not Active”; to `O=c1n(CCCN2CCN(c3cccc(Cl)c3)CC2)nc2ccccn12` [TRAZODONE], “Not Active”.
Same read-out and setting: under `O=C(O)C(Cl)(Cl)Cl` [TRICHLOROACETIC ACID] stands “Not Active”.
Consider STANNOUS FLUORIDE, for which the IC50 entry is “Not Active” and the Ki entry was “Not Active”.
With THIMEROSAL, the IC50 result is given as “Not Active” and the Ki entry is “Not Active”.

Tested on in the next data set: not listed separately
Nature of the data set: DRUGMATRIX: Platelet-Derived Growth Factor (PDGF) radioligand binding (ligand: [125I] PDGF). The following applies: nih3t3; Not Active = under 50% inhibition at 10 µM. The format is cell-based.
In the case of `C=C(C)[C@H]1Cc2c(ccc3c2O[C@@H]2COc4cc(OC)c(OC)cc4[C@@H]2C3=O)O1` [ROTENONE], the 50% inhibitory concentration (IC50) entry is “Not Active” and the inhibitory constant (Ki) result is recorded as “Not Active”.
Consider `C[C@]12CC[C@H]3[C@@H](CCC4=CC(=O)CC[C@@]43C)[C@@H]1CC[C@@H]2O` [TESTOSTERONE], for which the IC50 entry is given as “Not Active” and the inhibitory constant (Ki) result is reported as “Not Active”.
In the case of `O=C(O)C(Cl)(Cl)Cl` [TRICHLOROACETIC ACID], the 50% inhibitory concentration (IC50) result is listed as “Not Active” and the Ki entry is listed as “Not Active”.
For STANNOUS FLUORIDE, the 50% inhibitory concentration (IC50) entry was “Not Active” and the inhibition constant (Ki) entry is listed as “Not Active”.
For THIMEROSAL, the IC50 entry is given as “Not Active” and the Ki entry was “Not Active”.

A further data set deals with Glycine receptor (Rattus norvegicus, UniProt P22771+P24524+P07727+P20781). The class given is cell membranes, Wistar, Spinal cord, Membrane.
Conditions: not given
With `O=c1[nH]c2ccccc2n1CCCN1CCC(n2c(=O)[nH]c3cc(Cl)ccc32)CC1` [DOMPERIDONE], the concentration for half-maximal inhibition (IC50) result was “Not Active”.
The same measure, in the same setting: to `CC[C@@H](CO)NC(=O)[C@@H]1C=C2c3cccc4c3c(cn4C)C[C@H]2N(C)C1` [METHYSERGIDE] belongs “Not Active”; to `CCN(CC)CC#CCOC(=O)C(O)(c1ccccc1)C1CCCCC1` (stereo not drawn) [OXYBUTYNIN], “Not Active”.
For `C=C(C)[C@H]1Cc2c(ccc3c2O[C@@H]2COc4cc(OC)c(OC)cc4[C@@H]2C3=O)O1` [ROTENONE], the half-inhibitory concentration (IC50) entry is on record as “Not Active”.
In the case of `C[C@]12CC[C@H]3[C@@H](CCC4=CC(=O)CC[C@@]43C)[C@@H]1CC[C@@H]2O` [TESTOSTERONE], the IC50 result was “Not Active”.
The same measure, in the same setting: under `O=c1n(CCCN2CCN(c3cccc(Cl)c3)CC2)nc2ccccn12` [TRAZODONE] stands “Not Active”; under `O=C(O)C(Cl)(Cl)Cl` [TRICHLOROACETIC ACID], “Not Active”.
On to STANNOUS FLUORIDE, for which the IC50 entry is reported as “Not Active” and the Ki result is recorded as “Not Active”.
Take THIMEROSAL: the IC50 entry was “Not Active” and the inhibition constant (Ki) entry is reported as “Not Active”.

Another data set concerns the target Voltage-gated inwardly rectifying potassium channel KCNH2 (Homo sapiens, UniProt Q12809). As to conditions: hek293. Further: in other assays of this panel Not Active means under 50% inhibition at 10 µM.
Turning to `O=c1[nH]c2ccccc2n1CCCN1CCC(n2c(=O)[nH]c3cc(Cl)ccc32)CC1` [DOMPERIDONE], the half-inhibitory concentration (IC50) result was “Not Active” and the inhibition constant (Ki) result is given as “Not Active”.
Consider `CC[C@@H](CO)NC(=O)[C@@H]1C=C2c3cccc4c3c(cn4C)C[C@H]2N(C)C1` [METHYSERGIDE], for which the IC50 result is listed as “Not Active” and the Ki entry is on record as “Not Active”.
Take `CCN(CC)CC#CCOC(=O)C(O)(c1ccccc1)C1CCCCC1` (stereo not drawn) [OXYBUTYNIN]: the 50% inhibitory concentration (IC50) entry is given as “Not Active” and the Ki entry is listed as “Not Active”.
`C=C(C)[C@H]1Cc2c(ccc3c2O[C@@H]2COc4cc(OC)c(OC)cc4[C@@H]2C3=O)O1` [ROTENONE]: the IC50 entry was “Not Active” and the inhibitory constant (Ki) result is “Not Active”.
Take `O=c1n(CCCN2CCN(c3cccc(Cl)c3)CC2)nc2ccccn12` [TRAZODONE]: the IC50 entry is “Not Active” and the Ki entry is recorded as “Not Active”.
With `O=C(O)C(Cl)(Cl)Cl` [TRICHLOROACETIC ACID], the IC50 result was “Not Active” and the Ki entry is given as “Not Active”.
Turning to STANNOUS FLUORIDE, the IC50 result is “Not Active” and the inhibition constant (Ki) entry was “Not Active”.
For the compound THIMEROSAL, the IC50 result is “Not Active” and the Ki result is on record as “Not Active”.

The target of another data set is T1, 5-hydroxytryptamine receptor 2C (Homo sapiens, UniProt P28335).
T1 sequence (P28335 whole entry): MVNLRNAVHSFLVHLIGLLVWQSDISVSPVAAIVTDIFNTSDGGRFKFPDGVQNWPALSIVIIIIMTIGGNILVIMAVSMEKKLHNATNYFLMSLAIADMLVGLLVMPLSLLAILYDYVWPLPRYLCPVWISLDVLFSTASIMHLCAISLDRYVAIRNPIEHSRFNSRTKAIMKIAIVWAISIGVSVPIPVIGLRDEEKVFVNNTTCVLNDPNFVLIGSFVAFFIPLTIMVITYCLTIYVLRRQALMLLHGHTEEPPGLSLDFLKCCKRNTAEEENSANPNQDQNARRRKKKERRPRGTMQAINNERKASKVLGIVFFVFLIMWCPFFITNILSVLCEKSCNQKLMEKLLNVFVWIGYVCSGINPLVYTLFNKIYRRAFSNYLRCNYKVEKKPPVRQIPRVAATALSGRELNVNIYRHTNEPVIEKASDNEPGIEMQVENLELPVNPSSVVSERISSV
Kind of data set: DRUGMATRIX: Serotonin (5-Hydroxytryptamine) 5-HT2C radioligand binding (ligand: [3H] Mesulergine). The class given is cell membranes, CHO-K1, Membrane. As to conditions: Not Active = under 50% inhibition at 10 µM; read-out: IC50.
On to `CC[C@@H](CO)NC(=O)[C@@H]1C=C2c3cccc4c3c(cn4C)C[C@H]2N(C)C1` [METHYSERGIDE], for which the IC50 stood at 2.09 nM.

The data set is the same for the next values; noted with them: Not Active = under 50% inhibition at 10 µM; read-out: Ki.
As to `CC[C@@H](CO)NC(=O)[C@@H]1C=C2c3cccc4c3c(cn4C)C[C@H]2N(C)C1` [METHYSERGIDE], the Ki came to 1.09 nM.

Staying with this data set, now noted: cho-k1; Not Active = under 50% inhibition at 10 µM.
In the case of `CCN(CC)CC#CCOC(=O)C(O)(c1ccccc1)C1CCCCC1` (stereo not drawn) [OXYBUTYNIN], the IC50 entry is recorded as “Not Active”.
The same measure, in the same setting: under `C=C(C)[C@H]1Cc2c(ccc3c2O[C@@H]2COc4cc(OC)c(OC)cc4[C@@H]2C3=O)O1` [ROTENONE] stands “Not Active”; under `C[C@]12CC[C@H]3[C@@H](CCC4=CC(=O)CC[C@@]43C)[C@@H]1CC[C@@H]2O` [TESTOSTERONE], “Not Active”.
`O=C(O)C(Cl)(Cl)Cl` [TRICHLOROACETIC ACID]: the IC50 result is listed as “Not Active”.
Turning to STANNOUS FLUORIDE, the IC50 entry is “Not Active” and the Ki entry is recorded as “Not Active”.
In the case of THIMEROSAL, the concentration for half-maximal inhibition (IC50) entry is on record as “Not Active” and the inhibition constant Ki entry is listed as “Not Active”.

The target in another data set is C-C chemokine receptor type 2 (Homo sapiens, UniProt P41597). The class given is cell membranes, CHO-K1, Membrane. The following applies: cho-k1. Further: in other assays of this panel Not Active means under 50% inhibition at 10 µM.
C-C chemokine receptor type 2, sequence (P41597 whole entry): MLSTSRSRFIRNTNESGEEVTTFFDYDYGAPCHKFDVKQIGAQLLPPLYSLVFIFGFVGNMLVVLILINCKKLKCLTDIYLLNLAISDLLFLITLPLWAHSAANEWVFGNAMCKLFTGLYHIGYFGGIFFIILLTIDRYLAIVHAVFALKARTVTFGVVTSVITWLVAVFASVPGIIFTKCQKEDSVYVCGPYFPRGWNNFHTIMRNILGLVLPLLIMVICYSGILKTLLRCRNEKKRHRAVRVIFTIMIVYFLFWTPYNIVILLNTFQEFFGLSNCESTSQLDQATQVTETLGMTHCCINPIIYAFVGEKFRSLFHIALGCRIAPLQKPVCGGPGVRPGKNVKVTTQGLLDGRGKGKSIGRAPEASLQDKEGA
`O=c1[nH]c2ccccc2n1CCCN1CCC(n2c(=O)[nH]c3cc(Cl)ccc32)CC1` [DOMPERIDONE]: the concentration for half-maximal inhibition (IC50) entry was “Not Active”.
The same measure, in the same setting: to `CC[C@@H](CO)NC(=O)[C@@H]1C=C2c3cccc4c3c(cn4C)C[C@H]2N(C)C1` [METHYSERGIDE] belongs “Not Active”.
Same read-out and setting: under `CCN(CC)CC#CCOC(=O)C(O)(c1ccccc1)C1CCCCC1` (stereo not drawn) [OXYBUTYNIN] stands “Not Active”.
Same read-out and setting: to `C=C(C)[C@H]1Cc2c(ccc3c2O[C@@H]2COc4cc(OC)c(OC)cc4[C@@H]2C3=O)O1` [ROTENONE] belongs “Not Active”; to `C[C@]12CC[C@H]3[C@@H](CCC4=CC(=O)CC[C@@]43C)[C@@H]1CC[C@@H]2O` [TESTOSTERONE], “Not Active”.
For `O=c1n(CCCN2CCN(c3cccc(Cl)c3)CC2)nc2ccccn12` [TRAZODONE], the IC50 result is recorded as “Not Active”.
On the same count and under the same terms, under `O=C(O)C(Cl)(Cl)Cl` [TRICHLOROACETIC ACID] stands “Not Active”.
Regarding STANNOUS FLUORIDE, the IC50 result is listed as “Not Active” and the inhibition constant (Ki) entry is listed as “Not Active”.
THIMEROSAL: the concentration for half-maximal inhibition (IC50) entry is recorded as “Not Active” and the Ki entry was “Not Active”.

Tested on in the next data set: not listed separately
Nature of the data set: DRUGMATRIX: Atrial Natriuretic Factor (ANF) radioligand binding (ligand: [125I] ANF (rat)). The class given is cell membranes, Cavia porcellus, Dunkin-Hartley, Adrenal gland, Membrane. The following applies: Not Active = under 50% inhibition at 10 µM.
On to `C=C(C)[C@H]1Cc2c(ccc3c2O[C@@H]2COc4cc(OC)c(OC)cc4[C@@H]2C3=O)O1` [ROTENONE], for which the IC50 entry is “Not Active” and the Ki result was “Not Active”.
Regarding `C[C@]12CC[C@H]3[C@@H](CCC4=CC(=O)CC[C@@]43C)[C@@H]1CC[C@@H]2O` [TESTOSTERONE], the IC50 entry is listed as “Not Active” and the inhibition constant (Ki) result is “Not Active”.
For the compound `O=C(O)C(Cl)(Cl)Cl` [TRICHLOROACETIC ACID], the concentration for half-maximal inhibition (IC50) entry is given as “Not Active” and the Ki entry is reported as “Not Active”.
For STANNOUS FLUORIDE, the half-inhibitory concentration (IC50) entry is given as “Not Active” and the Ki entry was “Not Active”.
As to THIMEROSAL, the IC50 result is “Not Active” and the inhibition constant (Ki) entry was “Not Active”.
